The experiment relates to MTT (mouse pheochromocytoma). The experiment is described as follows: IC50 of cell viability (ATP content). Particulars: (24 or 48 h). Summed up:
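Cells of the MTT mouse pheochromocytoma line, 5 µl per well at 200,000 cells/ml, were grown overnight at 37°C, 5% CO2 in white 1536-well plates with DMEM, 5% FBS and 1% horse serum. Pintool transfer then delivered 23 nl of library compound in DMSO, giving 8 final concentrations from 0.5 nM to 46 µM, for an exposure of 24 or 48 hrs. Luminescence from CellTiter-Glo was read after 15 minutes and referenced to positive-control wells (100%) and DMSO wells (0%). IC50 was calculated with a four-parameter logistic fit.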

The results in this text go back to the supplement of paper PMC3974653.

Structures can show the parent of a compound that is named as a salt. Where only a bound is given, the exact number is not on record here.

Consider `CCCCCCC(O)C/C=C/CCCCCCCC(=O)O` (centres undefined) [POTASSIUM RICINOLEATE], for which the “IC50 of cell viability” value is greater than 46 µM.
Consider `CCCCCC[C@@H](O)C/C=C\CCCCCCCC(=O)O` [POTASSIUM RICINOLEATE], for which the “IC50 of cell viability” value is greater than 46 µM.
Turning to `CC(=O)Nc1ccc(OCC(O)CNC(C)C)cc1` (centres undefined) [PRACTOLOL], the “IC50 of cell viability” value was greater than 46 µM.
On to `CCCN[C@H]1CCc2nc(N)sc2C1` [PRAMIPEXOLE DIHYDROCHLORIDE], for which the “IC50 of cell viability” value was greater than 46 µM.
Turning to `CC(C)[N+](C)(C)CC(O)COc1cccc2ccccc12` (centres undefined) [PRANOLII CHLORIDUM], the “IC50 of cell viability” value was greater than 46 µM.
Under `CC(C(=O)O)c1ccc2c(c1)Cc1cccnc1O2` (centres undefined) [PRANOPROFEN] stands greater than 46 µM.
The same measure for `N=C(N)n1cccn1` [PRAXADINUM]: greater than 46 µM; for `ClC1=CC=C2N(CC3CC3)C(=O)C\N=C(\C4=CC=CC=C4)C2=C1` [PRAZEPAM]: greater than 46 µM.
As to `CC(=O)OCC(=O)[C@@]1(O)CCC2C3CCC/4=C/C(=O)/C=C\C4(C)C3C(O)C[C@@]12C` (some centres undefined) [PREDNISOLONE ACETATE], the “IC50 of cell viability” value was greater than 46 µM.
Regarding `C[C@@]12CC(O)C3C(CCC/4=C/C(=O)/C=C\[C@]34C)C1CC[C@]2(O)C(=O)CO` (some centres undefined) [PREDNISOLONE], the “IC50 of cell viability” value was greater than 46 µM.
For the molecule `CC(C)CC(CN)CC(=O)O` (centres undefined) [PREGABALIN], the “IC50 of cell viability” value is greater than 46 µM.
As for `CC[N+]1(CC)CCC(=C(c2ccccc2)c2ccccc2)C1C` (centres undefined) [PRIFINIUM BROMIDE], the “IC50 of cell viability” value was greater than 46 µM.
As to `CCC1(c2ccccc2)C(=O)NCNC1=O` [PRIMIDONE], the “IC50 of cell viability” value is greater than 46 µM.
Take `CCCC(C(=O)OCCN(CC)CC)(c1ccccc1)c1ccccc1.Cl` [PROADIFEN HYDROCHLORIDE]: the “IC50 of cell viability” value was greater than 46 µM.
On to `CCN(CC)CCNC(=O)c1ccc(N)cc1` [PROCAINAMIDE], for which the “IC50 of cell viability” value is greater than 46 µM.
As to `CC[C@H](NC(C)C)[C@H](O)C1=CC=C(O)C2=C1\C=C/C(=O)N2` [PROCATEROL], the “IC50 of cell viability” value is greater than 46 µM.
For the molecule `O=C(O)CCc1nc2ccccc2[nH]1` [PROCODAZOLUM], the “IC50 of cell viability” value was greater than 46 µM.
Turning to `CC(CN1c2ccccc2Sc2ccccc21)N(C)C` (centres undefined) [PROMETHAZINE], the “IC50 of cell viability” value is greater than 46 µM.
Under `CC(C)NCC(O)c1ccc2ccccc2c1` (centres undefined) [PRONETHALOL] stands greater than 46 µM.
For `CC(C)[N+](C)(CCOC(=O)C1c2ccccc2Oc2ccccc21)C(C)C.[Br-]` [PROPANTHELINE BROMIDE], the “IC50 of cell viability” value is greater than 46 µM.
For the molecule `CCCn1cnc2c1c(=O)n(CCCCC(C)=O)c(=O)n2C` [PROPENTOFYLLINE], the “IC50 of cell viability” value is greater than 46 µM.
Take `CCCOC(C(=O)OC1CCN(C)CC1)(c1ccccc1)c1ccccc1` [PROPIVERINE HYDROCHLORIDE]: the “IC50 of cell viability” value is greater than 46 µM.
Under `CC(C)c1cccc(C(C)C)c1O` [PROPOFOL] stands greater than 46 µM.
With `CCCOC(=O)c1ccccc1` [PROPYL BENZOATE], the “IC50 of cell viability” value is greater than 46 µM.
Consider `CCCOC(=O)c1ccccc1O` [PROPYL SALICYLATE], for which the “IC50 of cell viability” value was greater than 46 µM.
Take `CCCCCCCCCCCCCCCCCC(=O)OCC(C)O` (centres undefined) [PROPYLENE GLYCOL STEARATE SE]: the “IC50 of cell viability” value is greater than 46 µM.
The same measure for `CCCc1cc(C(N)=S)ccn1` [PROTHIONAMIDE]: greater than 46 µM; for `NC(=O)[C@@H]1CCCN1C(=O)[C@H](Cc1cnc[nH]1)NC(=O)[C@@H]1CCC(=O)N1` [PROTIRELIN]: greater than 46 µM.
The same measure for `C=CC1=C(C)c2cc3[nH]c(cc4nc(cc5[nH]c(cc1n2)c(C)c5CCC(=O)[O-])C(CCC(=O)[O-])=C4C)c(C)c3C=C` [PROTOPORPHYRIN DISODIUM]: greater than 46 µM.
Under `O=C(O)c1cccc(-c2noc(-c3ccccc3F)n2)c1` [PTC 124] stands greater than 46 µM; under `c1cc2ccc3cccc4ccc(c1)c2c34` [PYRENE], greater than 46 µM.
On to `C=C/C=C/CC1=C(C)[C@@H](OC(=O)[C@@H]2[C@@H](/C=C(\C)C(=O)OC)C2(C)C)CC1=O.C=C/C=C/CC1=C(C)[C@@H](OC(=O)[C@@H]2[C@@H](C=C(C)C)C2(C)C)CC1=O` [PYRETHRINS/Pestanal], for which the “IC50 of cell viability” value was greater than 46 µM.
In the case of `CNC(=O)OCc1cccc(COC(=O)NC)n1` [PYRIDINOL CARBAMATE], the “IC50 of cell viability” value was greater than 46 µM.
For `CN(C)C(=O)Oc1ccc[n+](C)c1.[Br-]` [PYRIDOSTIGMINE BROMIDE], the “IC50 of cell viability” value was greater than 46 µM.
On to `Cc1ncc(CO)c(C=O)c1O` [PYRIDOXAL HYDROCHLORIDE], for which the “IC50 of cell viability” value was greater than 46 µM.
Regarding `Cc1ncc(COP(=O)(O)O)c(C=O)c1O` [PYRIDOXAL PHOSPHATE], the “IC50 of cell viability” value is greater than 46 µM.
For the molecule `Cc1ncc(COP(=O)(O)O)c(CN)c1O` [PYRIDOXAMINE PHOSPHATE], the “IC50 of cell viability” value is greater than 46 µM.
With `Cc1ncc(CSSCc2cnc(C)c(O)c2CO)c(CO)c1O` [PYRITHIOXINE], the “IC50 of cell viability” value was greater than 46 µM.
In the case of `CCC1(CC)C(=O)N\C=C/C1=O` [PYRITHYLDIONE], the “IC50 of cell viability” value was greater than 46 µM.
As for `O=C1CC[C@@H](C(=O)O)N1` [PYRROLIDONE CARBOXYLIC ACID], the “IC50 of cell viability” value is greater than 46 µM.
Under `O=[N+]([O-])c1c(Cl)cccc1-c1c[nH]cc1Cl` [PYRROLNITRIN] stands greater than 46 µM; under `CCCCC(CC)COC(=O)c1ccc(N(C)C)cc1` (centres undefined) [Padimate O], greater than 46 µM; under `CC(C)CCOC(=O)c1ccc(N(C)C)cc1` [Padimato], greater than 46 µM.
With `CCCCCCCCCCCCCCCC(=O)NCCO` [Palmitoylethanolamide], the “IC50 of cell viability” value is greater than 46 µM.
Consider `NCCC(O)(P(=O)(O)O)P(=O)(O)O` [Pamidronate disodium], for which the “IC50 of cell viability” value is greater than 46 µM.
`O=C(O)c1cc2ccccc2c(Cc2c(O)c(C(=O)O)cc3ccccc23)c1O` [Pamoic acid]: the “IC50 of cell viability” value was greater than 46 µM.
`COc1ccc(Cc2nccc3cc(OC)c(OC)cc23)cc1OC` [Papaverine hydrochloride]: the “IC50 of cell viability” value was greater than 46 µM.
With `C[C@@H]1C[C@H]2C3C[C@H](F)\C4=C\C(=O)\C=C/C4(C)C3[C@@H](O)CC2(C)[C@@]1(O)C(=O)COC(C)=O` (some centres undefined) [Paramethasone acetate], the “IC50 of cell viability” value is greater than 46 µM.
The same measure for `CCC(=O)Nc1ccc(O)cc1` [Parapropamol]: greater than 46 µM; for `CCC(=O)[N-]S(=O)(=O)c1ccc(-c2c(-c3ccccc3)noc2C)cc1` [Parecoxib sodium]: greater than 46 µM; for `C#CCN(C)Cc1ccccc1` [Pargyline hydrochloride]: greater than 46 µM.
The same measure for `C[C@H](/C=C/[C@H](C)C(C)(C)O)[C@H]1CC[C@H]2/C(=C/C=C3C[C@@H](O)C[C@H](O)C3)CCC[C@]12C` [Paricalcitol]: greater than 46 µM.
The same measure for `Fc1ccc(C2CCNCC2COc2ccc3c(c2)OCO3)cc1` (centres undefined) [Paroxetine]: greater than 46 µM.
With `Nc1ccc(C(=O)[O-])c(O)c1` [Pasiniazid], the “IC50 of cell viability” value was greater than 46 µM.
Under `Cc1ccc(Nc2nccc(N(C)c3ccc4c(C)n(C)nc4c3)n2)cc1[S+](N)(=O)[O-]` [Pazopanib] stands greater than 46 µM; under `CN1CCCC(CN2c3ccccc3Sc3ccccc32)C1` (centres undefined) [Pecazina], greater than 46 µM.
As to `CC(C)(C)NC[C@@H](O)COc1ccccc1C1CCCC1` [Penbutolol sulfate], the “IC50 of cell viability” value was greater than 46 µM.
Regarding `OC1(c2ccc(Cl)c(C(F)(F)F)c2)CCN(CCCC(c2ccc(F)cc2)c2ccc(F)cc2)CC1` [Penfluridol], the “IC50 of cell viability” value is greater than 46 µM.
The same measure for `Nc1c(Cl)c(Cl)c(Cl)c(Cl)c1Cl` [Pentachloroaniline]: greater than 46 µM; for `CSCCC(NC(=O)C(Cc1c[nH]c2ccccc12)NC(=O)CCNC(=O)OC(C)(C)C)C(=O)NC(CC(=O)O)C(=O)NC(Cc1ccccc1)C(N)=O` (centres undefined) [Pentagastrin]: greater than 46 µM; for `O=C(O)CN(CCN(CC(=O)O)CC(=O)O)CCN(CC(=O)O)CC(=O)O` [Pentetic acid]: greater than 46 µM.
For the molecule `OCC1(CO)COC(C(Cl)(Cl)Cl)OC1` [Penthrichloral], the “IC50 of cell viability” value was greater than 46 µM.
In the case of `C[N+]1(CCCCC[N+]2(C)CCCC2)CCCC1.O=C([O-])[C@@H](O)[C@@H](O)C(=O)O.O=C([O-])[C@@H](O)[C@@H](O)C(=O)O` [Pentolinium bitartrate], the “IC50 of cell viability” value is greater than 46 µM.
Regarding `OC[C@H]1O[C@@H](n2cnc3c2N=CNC[C@H]3O)C[C@@H]1O` [Pentostatin], the “IC50 of cell viability” value is greater than 46 µM.
Regarding `CC(=O)CCCCn1c(=O)c2c(ncn2C)n(C)c1=O` [Pentoxifylline], the “IC50 of cell viability” value is greater than 46 µM.
The same measure for `CN1CCN(CCCN2c3ccccc3Sc3ccccc32)CC1` [Perazine]: greater than 46 µM.
The same measure for `FC(F)(F)C(F)(F)C(F)(F)C(F)(F)C(F)(F)C(F)(F)C(F)(F)C(F)(F)Br` [Perflubron]: greater than 46 µM.
Under `O=[S+]([O-])(O)C(F)(F)C(F)(F)C(F)(F)C(F)(F)C(F)(F)C(F)(F)C(F)(F)C(F)(F)F` [Perfluorooctane sulfonic acid] stands greater than 46 µM; under `CCCCCCCCCCCCCCCCCCOP(=O)([O-])OC1CC[N+](C)(C)CC1` [Perifosine], greater than 46 µM.
